Experiments:
[1] = Solubility as a function of time in hexanol/n-heptane (1:39 v:v), UV-spectrophotometry; format: physicochemical; settings: 25±1° C., UV at 227 nm, hydrobromide
Text: It is known to a person skilled in the art that the difference in the relative solubility of two polymorphs is independent from the solvent system, if an “ideal solution”, meaning a solution which is not too concentrated, is present. (see e.g. Kuhnert-Brandstätter M., Burger A., Pharmazeutische Industrie, 1972, 34, Nr. 3, 187-190; Samuel H. Yalowsky, Solubility and Solubilization in Aqueous Media, ACS, Oxford University Press 1999, ISBN: 0-8412-3576-7, p. 98). Therefore the solubilities of vortioxetine hydrobromide forms alpha and beta of WO 2007/144005 A1 and the compound of the present invention were determined in a mixture of hexanol and n-heptane. […] (see example 4 of the present invention).
The solubilities as a function of time were determined for vortioxetine hydrobromide polymorphs alpha, beta and the crystalline compound of the present invention, respectively. Therefore approximately 100 mg of each polymorph (polymorph alpha and beta were obtained according to the procedures disclosed in WO 2007/144005 A1, the crystalline compound of the present invention was obtained according to the procedure disclosed in example 1 herein) were stirred in 50 mL of a mixture of hexanol/n-heptane (1:39=v:v) at 25±1° C. Subsequently 5 mL were taken from each suspension after 1, 5, 10, 15, 30 and 60 minutes with the aid of a volumetric pipette and filtered. The concentrations of the obtained solutions were determined directly by UV-spectrophotometry (apparatus: Shimadzu UV1800) at 227 nm.
The determination of the extinction coefficient was performed with polymorph delta as a calibration substance.

[2] = Solid-state stability of the hydrate at room temperature; format: physicochemical; settings: not stable
Text: The novel hydrate of vortioxetine hydrobromide is not stable at room temperature and converts to form alpha of WO 2007/144005 A1 within about 4 weeks.

[3] = Water solubility calculated from relative solubilities and WO 2007/144005 A1 water solubility data; settings: calculation with water solubility value of polymorph alpha (2.0 mg/mL) from WO 2007/144005 A1, hydrobromide
Text: (§1) Using the water solubility values of polymorphs alpha and beta provided in WO 2007/144005 A1 and the herein determined relative solubilities of polymorphs alpha, beta and delta the water solubility of the crystalline compound of the present invention can be calculated.

[4] = exposed to high relative humidity; example 4f of WO 2007/144005 A1; cited from earlier work
[5] = Gravimetric moisture sorption/desorption cycle; format: physicochemical
Text: In addition, an active pharmaceutical ingredient is preferably non-hygroscopic in order to ensure the chemical and physical quality during the storage of the active substance itself. Furthermore, an active pharmaceutical ingredient is preferably non-hygroscopic in order to ensure the chemical and physical quality also during the shelf-life of a solid finished dosage form containing the active substance. Special and expensive packaging can then be avoided. […] For instance, in example 4f of WO 2007/144005 A1, it is mentioned that form gamma absorbs about 4.5% water when exposed to high relative humidity and in example 4h of the same application it is stated that the water content of the hemihydrate strongly depends on the relative humidity. For instance, the water content of the hemihydrate at 95% relative humidity is about 3.7% according to example 4h of WO 2007/144005.
Gravimetric moisture sorption/desorption curves were acquired using a SPS-11 moisture sorption analyzer (MD Messtechnik, Ulm, D). The measurement cycle was started at 43% relative humidity (RH) and decreased in 10% steps down to 0% RH; up to 95% RH, down to 0% RH and up to 43% RH. The equilibrium condition for each step was set to a mass constancy of ±0.01% over 30 min. The temperature was 25±0.1° C.

physchem = settings: water
Text: as §1

## Br.Cc1ccc(Sc2ccccc2N2CCNCC2)c(C)c1 [polymorph alpha, 1-{2-[(2,4-dimethylphenyl)sulfanyl]phenyl}piperazine hydrobromide]
[1]; listed as alpha
  absolute solubility in hexanol/n-heptan (1:39 = v:v): 31 µg/mL

## Cc1ccc(Sc2ccccc2N2CCNCC2)c(C)c1
[2]
  time to conversion to form alpha: ≤ 4 weeks

## Br.Cc1ccc(Sc2ccccc2N2CCNCC2)c(C)c1 [polymorph beta, 1-{2-[(2,4-dimethylphenyl)sulfanyl]phenyl}piperazine hydrobromide, reference compound]
[1]; listed as beta
  absolute solubility in hexanol/n-heptan (1:39 = v:v): 15 µg/mL
[3]
  calculated water solubility 1): 1000 µg/mL

## Br.Cc1ccc(Sc2ccccc2N2CCNCC2)c(C)c1 [form gamma, 1-{2-[(2,4-dimethylphenyl)sulfanyl]phenyl}piperazine hydrobromide]
[4]
  water absorbed: about 4.5%

## Br.Cc1ccc(Sc2ccccc2N2CCNCC2)c(C)c1 [polymorph delta, 1-{2-[(2,4-dimethylphenyl)sulfanyl]phenyl}piperazine hydrobromide]
[1]; listed as present invention
  absolute solubility in hexanol/n-heptan (1:39 = v:v): 48 µg/mL
[5]; according to the specifications of the European Pharmacopoeia
  hygroscopicity: non-hygroscopic
[5]; relative humidity of about 0%, 25° C.
  water content: about 0.3%
[5]; relative humidity of about 80%, 25° C.
  water content: about 0.5%
[5]; up to a relative humidity of about 95%
  water content: less than 0.7%
[3]; listed as compound of the present invention
  calculated water solubility 1): 3000 µg/mL
physchem
  solubility: 3800 µg/mL

Source: patent US9499504B2, “Crystalline form of vortioxetine hydrobromide” (Sandoz AG, priority 2012, dated 2016)
